# Results reported in patent US7776897B2, “Triazole derivative or salt thereof” (Astellas Pharma Inc., priority 2004, dated 2010).
# Legend:
# [1] = target: human recombinant 11β-HSD1 (Homo sapiens, UniProt P28845); test: Test for measuring human 11β-HSD1 inhibitory activity (HTRF cortisol detection); assay type: biochemical; details: human recombinant enzyme, 200 nM cortisone, 40 μM NADPH, pH 6.6, room temperature 1 hour; average of 3 wells
# Method: (§1) (1) Test for Measuring Human 11β-HSD1/11β-HSD2 Inhibitory Activity
# (§2) The procedure for measuring human 11β-HSD1/11β-HSD2 inhibitory activity is as follows. The enzymatic reaction and measurement were performed using a 384-well plate. The reaction was carried out by adding a test compound in various concentrations to a reaction solution containing a 10 mM phosphate buffer solution (pH 6.6), 200 nM cortisone, 40 μM reduced nicotinamide adenine dinucleotide phosphate (NADPH), and human recombinant 11β-HSD1 and then incubating the mixture at room temperature for 1 hour (10 μl/well). The test compound was dissolved in dimethyl sulfoxide (DMSO) to prepare a sample so that the DMSO concentration in the reaction solution became 1%. After the enzymatic reaction, an enzymatic inhibitory activity was measured by detecting cortisol using homogeneous time-resolved fluorescence (HTRF). XL-665-labeled cortisol containing 400 μM carbenoxolone and cryptate-labeled cortisol antibody (CIS Bio International) were added in each amount of 5 μl/well, followed by incubation at room temperature for 2 hours. Then, fluorescence intensity was measured using a fluorophotometer (product name: Discovery, PerkinElmer) and an enzymatic inhibitory activity was calculated based on two-wavelength fluorescence intensity ratio (665 nm/620 nm).
# (§3) The results of the measurement were calculated as an average of the values for 3 wells obtained under the same conditions.
# [2] = target: T1, human recombinant 11β-HSD2 (Homo sapiens, UniProt P80365); test: Test for measuring human 11β-HSD2 inhibitory activity (HTRF cortisol detection); assay type: biochemical; details: human recombinant enzyme, 200 nM cortisol, 200 μM NAD, pH 8.0, 37° C. 2 hours; average of 3 wells
# T1 sequence (P80365 1-405): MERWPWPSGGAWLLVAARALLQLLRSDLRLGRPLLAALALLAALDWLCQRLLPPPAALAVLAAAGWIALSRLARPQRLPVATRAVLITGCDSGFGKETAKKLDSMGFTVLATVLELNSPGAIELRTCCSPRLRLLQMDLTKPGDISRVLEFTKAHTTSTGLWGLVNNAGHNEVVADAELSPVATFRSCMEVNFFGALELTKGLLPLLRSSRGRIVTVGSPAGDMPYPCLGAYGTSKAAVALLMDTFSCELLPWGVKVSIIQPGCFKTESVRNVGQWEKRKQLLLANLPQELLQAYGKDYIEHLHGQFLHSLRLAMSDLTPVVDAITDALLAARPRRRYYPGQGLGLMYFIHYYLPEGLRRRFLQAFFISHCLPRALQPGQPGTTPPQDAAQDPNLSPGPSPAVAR
# Method: as §1, §2
# The measurement of 11β-HSD2 inhibitory activity was performed in the same manner as in the measurement of 11β-HSD1 inhibitory activity except for enzymatic reaction conditions. The enzymatic reaction was carried out by adding a test compound in various concentrations to a reaction solution containing a 40 mM tris-hydrochloride buffer solution (Tris-HCl) (pH 8.0), 200 nM cortisol, 200 μM nicotinamide adenine dinucleotide (NAD), and human recombinant 11β-HSD2 and then incubating the mixture at 37° C. for 2 hours (10 μl/well).
# as §3
# ob/ob mice = test: ob/ob mouse blood-glucose lowering test; assay type: in vivo; details: male ob/ob mice, 30 mg/kg bid orally for 9 days, measured 12 hours after final administration, non-fasting, n=6
# Method: (2) ob/ob Mouse Blood-Glucose Lowering Test
# A compound solution was prepared using 6% 2-hydroxypropyl-p-cyclodextrin as a solvent. Using 8 weeks-old male ob/ob mice (blood-glucose level of 300 mg or more), blood-glucose levels were measured under non-fasting conditions and then the mice were divided into groups so that the blood-glucose levels became even among the groups. The test compound was orally administered twice per day repeatedly for 9 days (30 mg/kg, bid) and a blood-sugar level was measured 12 hours after final administration (n=6). The blood-glucose level was measured by subjecting a collected blood to protein-removing treatment and then conducting colorimetric quantitative determination of a glucose level (mg/dL) in the supernatant.
# human recombinant 11β-HSD1, sequence (P28845 whole entry): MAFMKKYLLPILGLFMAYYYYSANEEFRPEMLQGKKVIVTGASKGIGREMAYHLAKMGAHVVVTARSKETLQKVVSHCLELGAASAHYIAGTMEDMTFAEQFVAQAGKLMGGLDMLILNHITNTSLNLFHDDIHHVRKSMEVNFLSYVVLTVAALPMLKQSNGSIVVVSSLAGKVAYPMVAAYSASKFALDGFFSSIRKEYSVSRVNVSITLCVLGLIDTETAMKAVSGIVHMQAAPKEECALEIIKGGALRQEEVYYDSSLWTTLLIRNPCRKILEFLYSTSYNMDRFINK
Structure (SMILES),IC50 [1] [µM],IC50 [2] [µM],blood-glucose lowering action (ob/ob mice) [%]
c1csc(C2(c3nnc4n3CCCCC4)CCCC2)c1 [Example 60],0.013,> 3,
Clc1ccc(C2(c3nnc4n3CCCCC4)CCCC2)s1 [Example 62],0.0053,> 3,
c1csc(C2(c3nnc4n3CCCCCC4)CCCC2)c1 [Example 68],0.0044,> 1,32
CC(C)(c1cccs1)c1nnc2n1CCCCCC2 [Example 100],0.0066,> 1,
CN(C1(c2nnc(-c3ccccc3Cl)n2C)CCCC1)S(=O)(=O)c1ccccc1 [Example 115],0.015,,
Cn1cccc1C(C)(C)c1nnc(-c2ccccc2Cl)n1C [Example 158],0.018,> 3,
Cn1c(-c2ccccc2Cl)nnc1C(C)(C)NC(=O)c1ccccc1 [Example 174],0.06,,
